Reference: ChEMBL document CHEMBL1145316, “Synthesis of novel tricyclic oxazolidinones by a tandem SN2 and SNAr reaction: SAR studies on conformationally constrained analogues of Linezolid” (2006)
In brackets after ≈: the same amount, converted by molar mass.

Key:
Format in all cases: functional
[1] = test system: Staphylococcus aureus; assay: Antibacterial activity against methicillin-resistant Staphylococcus aureus ATCC 33591
[2] = test system: Enterococcus faecalis; assay: Antibacterial activity against vancomycin-sensitive Enterococcus faecalis ATCC 29212
[3] = test system: Enterococcus faecalis; assay: Antibacterial activity against vancomycin-resistant Enterococcus faecalis NCTC 12201
[4] = test system: Staphylococcus aureus; assay: Antibacterial activity against Staphylococcus aureus ATCC 29213
[5] = test system: Staphylococcus aureus; assay: Antibacterial activity against Staphylococcus aureus ATCC 49951
[6] = test system: Enterococcus faecium; assay: Antibacterial activity against vancomycin-resistant Enterococcus faecium ATCC 12202

| SMILES | MIC [1] | MIC [2] | MIC [3] | MIC [4] | MIC [5] | MIC [6] |
| --- | --- | --- | --- | --- | --- | --- |
| CC(=O)NC[C@H]1CN(c2cc(F)c3c(c2)SC[C@@H]2CCCN32)C(=O)O1 | 1 µg/mL (≈ 2.74 µM) | 2 µg/mL (≈ 5.47 µM) | 1 µg/mL (≈ 2.74 µM) | 2 µg/mL (≈ 5.47 µM) | 1 µg/mL (≈ 2.74 µM) | 2 µg/mL (≈ 5.47 µM) |
| COC(=S)NC[C@H]1CN(c2cc(F)c3c(c2)N(C)C[C@@H]2CCCN32)C(=O)O1 | > 32 µg/mL | > 32 µg/mL | > 32 µg/mL | > 32 µg/mL | > 32 µg/mL | 32 µg/mL (≈ 81.1 µM) |
| CC(=O)NC[C@H]1CN(c2cc(F)c3c(c2)N(C)C[C@@H]2CCCN32)C(=O)O1 | > 32 µg/mL | > 32 µg/mL | > 32 µg/mL | > 32 µg/mL | > 32 µg/mL | 32 µg/mL (≈ 88.3 µM) |
| CN[C@H](CC(C)C)C(=O)N[C@H]1C(=O)N[C@@H](CC(N)=O)C(=O)N[C@H]2C(=O)N[C@H]3C(=O)N[C@H](C(=O)N[C@H](C(=O)O)c4cc(O)cc(O)c4-c4cc3ccc4O)[C@H](O)c3ccc(c(Cl)c3)Oc3cc2cc(c3O[C@@H]2O[C@H](CO)[C@@H](O)[C@H](O)[C@H]2O[C@H]2C[C@](C)(N)[C@H](O)[C@H](C)O2)Oc2ccc(cc2Cl)[C@H]1O [VANCOMYCIN] | – | 2 µg/mL (≈ 1.38 µM) | > 32 µg/mL | – | – | > 32 µg/mL |
| C/C(S)=N/C[C@H]1CN(c2cc(F)c3c(c2)SC[C@@H]2CCCN32)C(=O)O1 | 0.25 µg/mL (≈ 0.655 µM) | 0.5 µg/mL (≈ 1.31 µM) | 0.25 µg/mL (≈ 0.655 µM) | 0.5 µg/mL (≈ 1.31 µM) | 0.5 µg/mL (≈ 1.31 µM) | 0.25 µg/mL (≈ 0.655 µM) |
| CC(=O)NC[C@H]1CN(c2ccc3c(c2)N(C(C)=O)C[C@@H]2CCCN32)C(=O)O1 | > 256 µg/mL | > 256 µg/mL | > 256 µg/mL | > 256 µg/mL | > 256 µg/mL | > 256 µg/mL |
| CC(=O)NC[C@H]1CN(c2ccc3c(c2)OC[C@@H]2CCCN32)C(=O)O1 | 4 µg/mL (≈ 12.1 µM) | 16 µg/mL (≈ 48.3 µM) | 16 µg/mL (≈ 48.3 µM) | 8 µg/mL (≈ 24.1 µM) | 4 µg/mL (≈ 12.1 µM) | 16 µg/mL (≈ 48.3 µM) |
| CC(=O)NC[C@H]1CN(c2ccc3c(c2)SC[C@@H]2CCCN32)C(=O)O1 | 8 µg/mL (≈ 23 µM) | 8 µg/mL (≈ 23 µM) | 8 µg/mL (≈ 23 µM) | 8 µg/mL (≈ 23 µM) | 8 µg/mL (≈ 23 µM) | 8 µg/mL (≈ 23 µM) |
| CC(=O)NC[C@H]1CN(c2ccc3c(c2)N(C=O)C[C@@H]2CCCN32)C(=O)O1 | > 256 µg/mL | > 256 µg/mL | > 256 µg/mL | > 256 µg/mL | > 256 µg/mL | > 256 µg/mL |
| CC(=O)NC[C@H]1CN(c2ccc(N3CCOCC3)c(F)c2)C(=O)O1 [LINEZOLID] | 1 µg/mL (≈ 2.96 µM) | – | – | – | – | 2 µg/mL (≈ 5.93 µM) |
| COC(=S)NC[C@H]1CN(c2ccc3c(c2)SC[C@@H]2CCCN32)C(=O)O1 | 0.25 µg/mL (≈ 0.659 µM) | 0.25 µg/mL (≈ 0.659 µM) | 0.25 µg/mL (≈ 0.659 µM) | 0.5 µg/mL (≈ 1.32 µM) | 1 µg/mL (≈ 2.63 µM) | 0.5 µg/mL (≈ 1.32 µM) |
| CC(=O)NC[C@H]1CN(c2ccc3c(c2)S(=O)(=O)C[C@@H]2CCCN32)C(=O)O1 | > 32 µg/mL | > 32 µg/mL | > 32 µg/mL | > 32 µg/mL | > 32 µg/mL | > 32 µg/mL |
| COC(=S)NC[C@H]1CN(c2cc(F)c3c(c2)SC[C@@H]2CCCN32)C(=O)O1 | 0.5 µg/mL (≈ 1.26 µM) | 1 µg/mL (≈ 2.52 µM) | 0.5 µg/mL (≈ 1.26 µM) | 1 µg/mL (≈ 2.52 µM) | 1 µg/mL (≈ 2.52 µM) | 0.5 µg/mL (≈ 1.26 µM) |
| CC(=O)NC[C@H]1CN(c2ccc3c(c2)N(C(=O)CCl)C[C@@H]2CCCN32)C(=O)O1 | > 256 µg/mL | > 256 µg/mL | > 256 µg/mL | > 256 µg/mL | > 256 µg/mL | > 256 µg/mL |
| CNC(=S)NC[C@H]1CN(c2cc(F)c3c(c2)SC[C@@H]2CCCN32)C(=O)O1 | 0.5 µg/mL (≈ 1.26 µM) | 1 µg/mL (≈ 2.52 µM) | 0.5 µg/mL (≈ 1.26 µM) | 2 µg/mL (≈ 5.04 µM) | 0.5 µg/mL (≈ 1.26 µM) | 1 µg/mL (≈ 2.52 µM) |
| CC(=O)NC[C@H]1CN(c2ccc3c(c2)N(C(=O)OCc2ccccc2)C[C@@H]2CCCN32)C(=O)O1 | > 32 µg/mL | > 32 µg/mL | > 32 µg/mL | > 32 µg/mL | > 32 µg/mL | > 32 µg/mL |
